The values below come from patent US20230233688A1, “MDMA PRODRUGS TO ASSIST PSYCHOTHERAPY” (priority 2021, published 2023).

As usually defined, the EC50 is the concentration that produces a half-maximal response.

Each structure is given as a SMILES string. Where two headings read alike, the source gives them in different places. Where only a bound is given, the exact number is not on record here.

For series [1], the system named is dopamine transporter (DAT) / serotonin transporter (SERT). As to conditions: cited from earlier work.
Series [2] has as its system healthy subjects. As to conditions: cited from earlier work.
Series [3] relates to humans. As to conditions: cited from earlier work.
For series [4] the following is noted: receptor studies and limited pre-clinical evidence; cited from earlier work.
For series [5], the system named is serotonin (5-HT) release. In words: Serotonin (5-HT) release. As to conditions: data on file.
Series [6] concerns the target 5-HT2A receptor (Homo sapiens, UniProt P28223).
For series [7], the system named is healthy subjects. The settings on record: cited from earlier work; for duration of self-reported effects: MDA 1.4 mg/kg orally, indirect comparison with MDMA from different subjects and studies.
The conditions of series [8]: cited from earlier work; for Tmax (plasma): after administration of 125 mg MDMA to healthy subjects; for elimination half-life: human plasma.
[9] abbreviates: relative dopamine over serotonin transporter inhibition potency ratio, literature values.
Setting [10] is: vs d-amphetamine, equivalent doses.

5-HT2A receptor, sequence (P28223 whole entry): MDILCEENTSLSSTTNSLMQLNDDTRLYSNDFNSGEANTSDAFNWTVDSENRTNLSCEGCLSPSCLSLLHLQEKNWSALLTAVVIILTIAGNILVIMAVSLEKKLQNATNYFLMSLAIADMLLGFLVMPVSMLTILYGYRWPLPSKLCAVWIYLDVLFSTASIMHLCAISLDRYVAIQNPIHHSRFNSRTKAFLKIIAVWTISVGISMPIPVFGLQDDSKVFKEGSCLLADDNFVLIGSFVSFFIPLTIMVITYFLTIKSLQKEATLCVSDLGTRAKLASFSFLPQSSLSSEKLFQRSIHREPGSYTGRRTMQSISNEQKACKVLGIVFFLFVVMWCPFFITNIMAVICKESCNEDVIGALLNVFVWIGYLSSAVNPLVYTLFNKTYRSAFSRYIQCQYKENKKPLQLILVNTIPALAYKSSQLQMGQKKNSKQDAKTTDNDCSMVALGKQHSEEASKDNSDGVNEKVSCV

Consider `NC1Cc2cc3c(cc2C1)OCO3` [MDAI, 5,6-methylenedioxy-2-aminoindane], for which the DAT/SERT ratio in series [1] is 0.2.
`CC(N)Cc1ccc2occc2c1` (stereo not shown) [5-APB, 5-(2-aminopropyl)-benzofuran]: the DAT/SERT ratio in series [1] (setting [9]) is reported as 0.05.
Turning to `C[C@@H](Cc1ccccc1)NC(=O)[C@@H](N)CCCCN` [lisdexamfetamine], the “maximal effect (Emax) or area under the effect-time curve (AUEC)” value in series [2] (lisdexamfetamine vs d-amphetamine) is recorded as “no differences”. In series [2] (setting [10]), the “maximal concentrations of amphetamine” value is on record as “no differences”; the “onset and peak times of the amphetamine concentration-time curve” value was “longer”. Besides, the “Tonset of blood pressure-time curve” value in series [2] (vs d-amphetamine) is recorded as “significantly longer”. For the same compound, the blood pressure increase entry in series [3] (100 mg lisdexamfetamine oral vs d-amphetamine, FIG. 9) is “increased more slowly and later”. The ratings of liking result in series [3] (oral, vs equivalent dose of d-amphetamine, FIG. 8) is “lower”.
Take `CCC(Cc1ccc2c(c1)OCO2)NC` (stereo not shown) [MBDB, 1-(1,3-benzodioxol-5-yl)-methyl-2-butanamine]: the DAT/SERT ratio in series [1] (setting [9]) was 0.09.
Turning to `CN[C@H](C)Cc1ccc2c(c1)OCO2` [R(-)-MDMA], in series [4], the “efficacy as a releaser of dopamine” value was “low efficacy” and the hyperthermia entry is listed as “does not produce hyperthermia”.
With `CC(N)Cc1ccc2ccoc2c1` (stereo not shown) [6-APB, 6-(2-aminopropyl)-benzofuran], the DAT/SERT ratio in series [1] (setting [9]) is on record as 0.29.
Take `CC(N)Cc1cc(F)c2c(c1)OCO2` (stereo not shown) [5F-MDA]: the 5-HT release result in series [5] is on record as “release 5-HT”.
The same measure, in the same setting: the entry for `CC(N)Cc1ccc2c(c1F)OCO2` (stereo not shown) [2F-MDA] is “release 5-HT”; for `CCC(N)Cc1ccc2c(c1)OCO2` (stereo not shown) [BDB, 1-(1,3-benzodioxol-5-yl)-2-aminobutane] it is “release 5-HT”.
On to `CNC(C)Cc1ccc2c(c1)OCO2` (stereo not shown) [MDMA, 3,4-Methylenedioxymethamphetamine], for which the EC50 in series [6] (Rickli et al., 2015b; read-out: EC50 of 5-HT2A receptor activation; cited from earlier work) is 6.1 µM. In addition, the DAT/SERT ratio in series [1] is listed as 0.08. Moreover, the “duration of self-reported effects” value in series [7] is no more than 6 h. Further, in series [8], the Tmax (plasma) was 2.6 h and the elimination half-life was 7 to 10 h.
In the case of `CC(N)Cc1cc2c(cc1F)OCO2` (stereo not shown) [6F-MDA], the 5-HT release result in series [5] was “release 5-HT”.
On to `CC(N)Cc1ccc2c(c1)OCO2` (stereo not shown) [MDA, 3,4-methylenedioxyamphetamine], for which the EC50 in series [6] (read-out: EC50 of 5-HT2A receptor activation; Rickli et al., 2015b; cited from earlier work) is 0.63 µM. The DAT/SERT ratio in series [1] was 0.24. Further, in series [7], the “duration of self-reported effects” value is “up to 8 hours”. Further, the “perceptual changes on the 5-Dimensions of Altered States of Consciousness Scale” value in series [7] (MDA vs MDMA, indirect comparison) is on record as “greater perceptual changes than MDMA”. For the same compound, in series [8], the Tmax (plasma) is 4.7 h and the elimination half-life was 10 to 16 h. The “Peak plasma concentration of MDA relative to that of MDMA” value in series [8] (after administration of MDMA) is 7-10%.
